Assay results from ChEMBL document CHEMBL4507301 (2021).

Assays:
[1] = target: Beta-adrenergic receptor kinase 1 (Homo sapiens) (UniProt P25098); details: Compound concentration 1000.0 nM
[2] = target: Activin receptor type-1 (Homo sapiens) (UniProt Q04771); details: Compound concentration 1000.0 nM
[3] = target: Phosphatidylinositol 4,5-bisphosphate 3-kinase catalytic subunit delta isoform (Homo sapiens) (UniProt O00329); details: Compound concentration 1000.0 nM
[4] = system: Tyrosine-protein kinase ABL1 (Homo sapiens), P00519 [T315I]; details: Compound concentration 1000.0 nM
[5] = target: GABA-A receptor; anion channel (Rattus norvegicus) (UniProt O09028+P15431+P18506+P18508+P19969+P20236+P23574+P23576+P28471+P28473+P30191+P62813+P63079+P63138+Q91ZM7+Q9ES14); details: Compound concentration 10.0 uM
[6] = target: Ephrin type-A receptor 2 (Homo sapiens) (UniProt P29317); details: Compound concentration 1000.0 nM
[7] = target: Serine/threonine-protein kinase Nek11 (Homo sapiens) (UniProt Q8NG66); details: Compound concentration 1000.0 nM
[8] = system: Epidermal growth factor receptor (Homo sapiens), P00533 [G719S]; details: Compound concentration 1000.0 nM
[9] = target: Serine/threonine-protein kinase SBK1 (Homo sapiens) (UniProt Q52WX2); details: Compound concentration 1000.0 nM
[10] = target: Epithelial discoidin domain-containing receptor 1 (Homo sapiens) (UniProt Q08345); details: Compound concentration 1000.0 nM
[11] = target: 5-hydroxytryptamine receptor 1D (Homo sapiens) (UniProt P28221); details: Compound concentration 10.0 uM
[12] = target: Tyrosine-protein kinase ITK/TSK (Homo sapiens) (UniProt Q08881); details: Compound concentration 1000.0 nM
[13] = target: Transient receptor potential cation channel subfamily M member 6 (Homo sapiens) (UniProt Q9BX84); details: Compound concentration 1000.0 nM
Sequence of Transient receptor potential cation channel subfamily M member 6 (Homo sapiens) (Q9BX84 whole entry): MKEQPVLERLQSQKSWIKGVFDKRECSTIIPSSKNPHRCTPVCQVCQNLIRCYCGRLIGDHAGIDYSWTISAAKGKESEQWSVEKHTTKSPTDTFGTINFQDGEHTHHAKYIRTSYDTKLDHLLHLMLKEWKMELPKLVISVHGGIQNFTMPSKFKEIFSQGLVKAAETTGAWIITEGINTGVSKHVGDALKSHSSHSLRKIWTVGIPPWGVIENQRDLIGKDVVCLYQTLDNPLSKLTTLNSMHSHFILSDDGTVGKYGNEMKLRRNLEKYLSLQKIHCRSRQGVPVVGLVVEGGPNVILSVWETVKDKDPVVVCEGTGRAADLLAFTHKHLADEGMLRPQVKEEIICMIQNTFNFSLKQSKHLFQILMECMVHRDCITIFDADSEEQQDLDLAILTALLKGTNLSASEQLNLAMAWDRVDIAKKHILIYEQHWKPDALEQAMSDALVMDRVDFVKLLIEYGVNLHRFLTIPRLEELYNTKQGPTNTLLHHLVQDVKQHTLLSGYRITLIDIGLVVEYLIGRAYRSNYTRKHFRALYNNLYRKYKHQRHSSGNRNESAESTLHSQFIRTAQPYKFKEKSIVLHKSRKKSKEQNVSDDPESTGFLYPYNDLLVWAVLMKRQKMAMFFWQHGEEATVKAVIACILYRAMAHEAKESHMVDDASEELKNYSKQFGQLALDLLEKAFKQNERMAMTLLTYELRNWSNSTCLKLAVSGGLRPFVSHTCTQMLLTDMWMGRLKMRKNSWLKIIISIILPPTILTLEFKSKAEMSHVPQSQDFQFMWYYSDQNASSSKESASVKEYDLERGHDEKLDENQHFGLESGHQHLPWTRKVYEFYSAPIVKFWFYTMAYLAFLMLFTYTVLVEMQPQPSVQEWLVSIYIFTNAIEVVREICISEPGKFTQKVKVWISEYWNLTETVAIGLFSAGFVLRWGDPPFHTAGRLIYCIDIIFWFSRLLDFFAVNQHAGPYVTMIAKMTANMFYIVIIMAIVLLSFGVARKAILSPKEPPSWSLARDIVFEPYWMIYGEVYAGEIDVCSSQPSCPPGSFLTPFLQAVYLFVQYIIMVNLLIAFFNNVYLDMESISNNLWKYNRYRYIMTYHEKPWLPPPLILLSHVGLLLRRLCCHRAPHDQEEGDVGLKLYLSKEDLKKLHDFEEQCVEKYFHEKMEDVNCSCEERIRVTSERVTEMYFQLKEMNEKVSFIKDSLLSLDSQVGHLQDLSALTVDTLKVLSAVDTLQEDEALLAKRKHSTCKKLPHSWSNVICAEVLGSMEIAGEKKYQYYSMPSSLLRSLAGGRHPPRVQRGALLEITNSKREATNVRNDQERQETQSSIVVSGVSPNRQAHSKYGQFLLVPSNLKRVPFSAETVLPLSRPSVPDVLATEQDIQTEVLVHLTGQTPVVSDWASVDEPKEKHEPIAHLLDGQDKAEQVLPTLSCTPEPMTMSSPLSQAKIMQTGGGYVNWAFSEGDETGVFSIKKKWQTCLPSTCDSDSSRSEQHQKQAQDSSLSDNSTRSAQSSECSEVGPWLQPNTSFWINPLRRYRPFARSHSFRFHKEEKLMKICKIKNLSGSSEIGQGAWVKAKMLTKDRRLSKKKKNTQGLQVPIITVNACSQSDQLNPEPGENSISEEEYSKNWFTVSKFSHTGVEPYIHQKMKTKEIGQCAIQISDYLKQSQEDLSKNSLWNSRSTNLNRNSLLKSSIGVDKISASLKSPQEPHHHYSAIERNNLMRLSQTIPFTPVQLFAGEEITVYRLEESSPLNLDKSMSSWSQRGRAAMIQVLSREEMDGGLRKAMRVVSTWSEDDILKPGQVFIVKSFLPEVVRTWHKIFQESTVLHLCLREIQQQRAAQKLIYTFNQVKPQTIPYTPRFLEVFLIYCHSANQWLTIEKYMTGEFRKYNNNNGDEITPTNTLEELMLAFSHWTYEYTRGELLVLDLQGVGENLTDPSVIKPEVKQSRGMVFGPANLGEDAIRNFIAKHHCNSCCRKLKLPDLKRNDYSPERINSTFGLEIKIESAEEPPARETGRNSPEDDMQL

[14] = system: Mast/stem cell growth factor receptor Kit (Homo sapiens), P10721 [A829P]; details: Compound concentration 1000.0 nM
[15] = target: Mitogen-activated protein kinase kinase kinase kinase 2 (Homo sapiens) (UniProt Q12851); details: Compound concentration 1000.0 nM
[16] = target: Calcium/calmodulin-dependent protein kinase type II subunit alpha (Homo sapiens) (UniProt Q9UQM7); details: Compound concentration 1000.0 nM
Sequence of Calcium/calmodulin-dependent protein kinase type II subunit alpha (Homo sapiens) (Q9UQM7 whole entry): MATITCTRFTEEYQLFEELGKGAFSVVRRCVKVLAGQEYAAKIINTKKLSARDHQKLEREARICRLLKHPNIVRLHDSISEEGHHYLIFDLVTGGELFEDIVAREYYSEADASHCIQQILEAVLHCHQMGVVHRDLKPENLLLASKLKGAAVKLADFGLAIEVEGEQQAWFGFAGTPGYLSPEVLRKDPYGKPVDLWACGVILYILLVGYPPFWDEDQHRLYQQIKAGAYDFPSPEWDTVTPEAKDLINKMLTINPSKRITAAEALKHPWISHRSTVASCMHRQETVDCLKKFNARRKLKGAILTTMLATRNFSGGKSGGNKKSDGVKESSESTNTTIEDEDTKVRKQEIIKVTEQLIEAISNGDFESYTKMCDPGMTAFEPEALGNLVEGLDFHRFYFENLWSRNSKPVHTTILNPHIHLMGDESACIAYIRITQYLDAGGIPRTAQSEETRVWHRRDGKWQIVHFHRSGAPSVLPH

[17] = target: Protein kinase C delta type (Homo sapiens) (UniProt Q05655); details: Compound concentration 1000.0 nM
[18] = target: Mitogen-activated protein kinase kinase kinase kinase 4 (Homo sapiens) (UniProt O95819); details: Compound concentration 1000.0 nM
[19] = target: Mitogen-activated protein kinase 13 (Homo sapiens) (UniProt O15264); details: Compound concentration 1000.0 nM
[20] = target: Dual specificity protein kinase CLK3 (Homo sapiens) (UniProt P49761); details: Compound concentration 1000.0 nM
[21] = target: Cyclin-dependent kinase 8 (Homo sapiens) (UniProt P49336); details: Compound concentration 1000.0 nM
Sequence of Cyclin-dependent kinase 8 (Homo sapiens) (P49336 whole entry): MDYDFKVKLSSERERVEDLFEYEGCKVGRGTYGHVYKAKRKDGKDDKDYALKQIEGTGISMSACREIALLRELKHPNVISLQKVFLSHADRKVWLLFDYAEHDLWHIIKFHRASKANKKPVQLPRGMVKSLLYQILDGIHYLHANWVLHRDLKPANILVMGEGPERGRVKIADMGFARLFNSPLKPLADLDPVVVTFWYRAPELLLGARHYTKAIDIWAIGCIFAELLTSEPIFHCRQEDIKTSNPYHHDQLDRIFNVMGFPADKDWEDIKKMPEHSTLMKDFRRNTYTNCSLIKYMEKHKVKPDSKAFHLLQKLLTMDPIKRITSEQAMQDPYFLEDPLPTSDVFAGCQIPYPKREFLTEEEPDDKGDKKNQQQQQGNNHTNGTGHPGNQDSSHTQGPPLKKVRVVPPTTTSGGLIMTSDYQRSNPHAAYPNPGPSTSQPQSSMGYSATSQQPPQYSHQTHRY

[22] = target: 5'-AMP-activated protein kinase catalytic subunit alpha-2 (Homo sapiens) (UniProt P54646); details: Compound concentration 1000.0 nM
[23] = target: Ribosomal protein S6 kinase alpha-2 (Homo sapiens) (UniProt Q15349); details: Compound concentration 1000.0 nM
[24] = target: G protein-coupled receptor kinase 4 (Homo sapiens) (UniProt P32298); details: Compound concentration 1000.0 nM
[25] = target: Casein kinase I isoform alpha (Homo sapiens) (UniProt P48729); details: Compound concentration 1000.0 nM
Sequence of Casein kinase I isoform alpha (Homo sapiens) (P48729 2-337 limits assumed): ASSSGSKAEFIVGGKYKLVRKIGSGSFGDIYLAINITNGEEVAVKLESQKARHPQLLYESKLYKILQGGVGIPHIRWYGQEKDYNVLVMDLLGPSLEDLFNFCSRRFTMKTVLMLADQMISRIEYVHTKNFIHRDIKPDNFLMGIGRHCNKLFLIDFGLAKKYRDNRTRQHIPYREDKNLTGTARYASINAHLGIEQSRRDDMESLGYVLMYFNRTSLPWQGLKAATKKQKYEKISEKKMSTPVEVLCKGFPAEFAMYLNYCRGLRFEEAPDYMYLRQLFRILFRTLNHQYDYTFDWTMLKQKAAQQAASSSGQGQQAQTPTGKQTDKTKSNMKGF

[26] = target: SRSF protein kinase 3 (Homo sapiens) (UniProt Q9UPE1); details: Compound concentration 1000.0 nM
[27] = system: Serine/threonine-protein kinase B-raf (Homo sapiens), P15056 [V600E]; details: Compound concentration 1000.0 nM
[28] = target: Dual specificity mitogen-activated protein kinase kinase 6 (Homo sapiens) (UniProt P52564); details: Compound concentration 1000.0 nM
[29] = target: Ribosomal protein S6 kinase beta-1 (Homo sapiens) (UniProt P23443); details: Compound concentration 1000.0 nM
[30] = target: Serine/threonine-protein kinase TBK1 (Homo sapiens) (UniProt Q9UHD2); details: Compound concentration 1000.0 nM
[31] = target: Serine/threonine-protein kinase TAO1 (Homo sapiens) (UniProt Q7L7X3); details: Compound concentration 1000.0 nM
Sequence of Serine/threonine-protein kinase TAO1 (Homo sapiens) (Q7L7X3 whole entry): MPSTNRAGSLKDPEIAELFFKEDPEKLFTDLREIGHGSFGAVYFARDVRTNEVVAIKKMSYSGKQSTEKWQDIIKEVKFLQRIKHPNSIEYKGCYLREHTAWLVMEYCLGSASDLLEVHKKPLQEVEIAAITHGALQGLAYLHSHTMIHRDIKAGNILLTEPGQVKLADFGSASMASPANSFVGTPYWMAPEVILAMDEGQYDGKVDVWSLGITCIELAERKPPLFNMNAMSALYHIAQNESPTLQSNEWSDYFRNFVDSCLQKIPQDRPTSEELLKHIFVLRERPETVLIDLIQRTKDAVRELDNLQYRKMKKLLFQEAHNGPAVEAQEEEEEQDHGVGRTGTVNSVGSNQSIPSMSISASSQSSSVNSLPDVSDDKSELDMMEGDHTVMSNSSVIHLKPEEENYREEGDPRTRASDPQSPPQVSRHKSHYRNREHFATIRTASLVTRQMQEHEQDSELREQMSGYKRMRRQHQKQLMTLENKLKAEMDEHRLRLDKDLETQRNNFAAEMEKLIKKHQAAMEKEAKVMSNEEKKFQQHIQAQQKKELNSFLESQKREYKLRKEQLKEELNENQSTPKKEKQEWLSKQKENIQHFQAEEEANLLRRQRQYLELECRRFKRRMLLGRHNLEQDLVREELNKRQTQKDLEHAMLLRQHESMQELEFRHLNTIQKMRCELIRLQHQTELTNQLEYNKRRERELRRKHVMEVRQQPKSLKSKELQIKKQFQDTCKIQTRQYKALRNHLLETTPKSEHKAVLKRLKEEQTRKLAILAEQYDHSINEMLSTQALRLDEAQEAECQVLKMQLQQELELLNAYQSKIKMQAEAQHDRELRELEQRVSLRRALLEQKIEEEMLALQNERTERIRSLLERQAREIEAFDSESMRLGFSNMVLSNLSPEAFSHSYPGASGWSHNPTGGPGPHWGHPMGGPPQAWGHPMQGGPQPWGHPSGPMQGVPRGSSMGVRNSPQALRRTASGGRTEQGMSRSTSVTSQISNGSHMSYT

[32] = target: Serine/threonine-protein kinase 32B (Homo sapiens) (UniProt Q9NY57); details: Compound concentration 1000.0 nM
[33] = target: Tyrosine-protein kinase Yes (Homo sapiens) (UniProt P07947); details: Compound concentration 1000.0 nM
[34] = target: Ribosomal protein S6 kinase alpha-4 (Homo sapiens) (UniProt O75676); details: Compound concentration 1000.0 nM
[35] = target: Activin receptor type-2B (Homo sapiens) (UniProt Q13705); details: Compound concentration 1000.0 nM
[36] = target: Myosin light chain kinase, smooth muscle (Homo sapiens) (UniProt Q15746); details: Compound concentration 1000.0 nM
[37] = target: Cyclin-dependent kinase 16 (Homo sapiens) (UniProt Q00536); details: Compound concentration 1000.0 nM
Sequence of Cyclin-dependent kinase 16 (Homo sapiens) (Q00536 whole entry): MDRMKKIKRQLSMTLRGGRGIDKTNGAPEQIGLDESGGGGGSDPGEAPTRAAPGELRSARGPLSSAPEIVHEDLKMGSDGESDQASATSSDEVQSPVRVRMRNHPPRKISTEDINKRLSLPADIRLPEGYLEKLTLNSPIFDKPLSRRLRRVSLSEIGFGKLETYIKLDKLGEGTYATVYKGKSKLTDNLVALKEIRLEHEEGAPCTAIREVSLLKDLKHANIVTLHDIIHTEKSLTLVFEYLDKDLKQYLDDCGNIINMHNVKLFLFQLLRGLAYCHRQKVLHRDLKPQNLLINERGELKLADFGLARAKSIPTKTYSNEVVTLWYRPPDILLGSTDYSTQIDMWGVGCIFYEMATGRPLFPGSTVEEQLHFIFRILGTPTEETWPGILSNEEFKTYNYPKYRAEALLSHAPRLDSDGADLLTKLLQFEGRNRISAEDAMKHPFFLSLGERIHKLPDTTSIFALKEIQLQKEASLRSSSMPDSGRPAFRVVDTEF

[38] = target: Mitogen-activated protein kinase kinase kinase 19 (Homo sapiens) (UniProt Q56UN5); details: Compound concentration 1000.0 nM
[39] = target: MAP kinase-activated protein kinase 2 (Homo sapiens) (UniProt P49137); details: Compound concentration 1000.0 nM
[40] = system: Tyrosine-protein kinase ABL1 (Homo sapiens), P00519 [Y253F]; details: Compound concentration 1000.0 nM
[41] = target: Cyclin-dependent kinase-like 5 (Homo sapiens) (UniProt O76039); details: Compound concentration 1000.0 nM
[42] = target: Tyrosine-protein kinase ZAP-70 (Homo sapiens) (UniProt P43403); details: Compound concentration 1000.0 nM
[43] = target: Bone morphogenetic protein receptor type-2 (Homo sapiens) (UniProt Q13873); details: Compound concentration 1000.0 nM
[44] = system: Tyrosine-protein kinase ABL1 (Homo sapiens), P00519 [T315I]; details: Compound concentration 1000.0 nM; remark: listed apart in the source

## C[C@@H](c1cccc(C#N)c1)n1cc(Cl)cc(C(N)=O)c1=N [(S)-9s]
[1]
  residual activity: 78%
[2]
  residual activity: 96%
[3]
  residual activity: 100%
[4]
  residual activity: 85%
[5]
  inhibition: 5.78%
[6]
  residual activity: 88%
[7]
  residual activity: 92%
[8]
  residual activity: 100%
[9]
  residual activity: 99%
[10]
  residual activity: 88%
[11]
  inhibition: 3.77%
[12]
  residual activity: 82%
[13]
  residual activity: 71%
[14]
  residual activity: 100%
[15]
  residual activity: 90%
[16]
  residual activity: 100%
[17]
  residual activity: 77%
[18]
  residual activity: 89%
[19]
  residual activity: 98%
[20]
  residual activity: 100%
[21]
  residual activity: 92%
[22]
  residual activity: 96%
[23]
  residual activity: 93%
[24]
  residual activity: 99%
[25]
  residual activity: 81%
[26]
  residual activity: 100%
[27]
  residual activity: 95%
[28]
  residual activity: 100%
[29]
  residual activity: 100%
[30]
  residual activity: 89%
[31]
  residual activity: 89%
[32]
  residual activity: 100%
[33]
  residual activity: 93%
[34]
  residual activity: 100%
[35]
  residual activity: 100%
[36]
  residual activity: 88%
[37]
  residual activity: 96%
[38]
  residual activity: 94%
[39]
  residual activity: 97%
[40]
  residual activity: 85%
[41]
  residual activity: 89%
[42]
  residual activity: 84%
[43]
  residual activity: 100%
[44]
  residual activity: 0%

## C[C@H](c1cccc(C#N)c1)n1cc(Cl)cc(C(N)=O)c1=N [(R)-9s]
[1]
  residual activity: 81%
[2]
  residual activity: 88%
[3]
  residual activity: 99%
[4]
  residual activity: 92%
[5]
  inhibition: 0.16%
[6]
  residual activity: 89%
[7]
  residual activity: 100%
[8]
  residual activity: 100%
[9]
  residual activity: 83%
[10]
  residual activity: 98%
[11]
  inhibition: 34.1%
[12]
  residual activity: 90%
[13]
  residual activity: 83%
[14]
  residual activity: 95%
[15]
  residual activity: 99%
[16]
  residual activity: 100%
[17]
  residual activity: 91%
[18]
  residual activity: 100%
[19]
  residual activity: 100%
[20]
  residual activity: 100%
[21]
  residual activity: 100%
[22]
  residual activity: 94%
[23]
  residual activity: 97%
[24]
  residual activity: 100%
[25]
  residual activity: 86%
[26]
  residual activity: 100%
[27]
  residual activity: 100%
[28]
  residual activity: 100%
[29]
  residual activity: 100%
[30]
  residual activity: 98%
[31]
  residual activity: 90%
[32]
  residual activity: 100%
[33]
  residual activity: 88%
[34]
  residual activity: 100%
[35]
  residual activity: 100%
[36]
  residual activity: 100%
[37]
  residual activity: 83%
[38]
  residual activity: 76%
[39]
  residual activity: 100%
[40]
  residual activity: 88%
[41]
  residual activity: 73%
[42]
  residual activity: 92%
[43]
  residual activity: 97%
[44]
  residual activity: 96%
